This is an account of results in publication PMC4937332 (2016).

This assay concerns T8A7 (in solution, with anchor) (RNA, riboswitch) GGGGAACAAACAUUCAAAAUAAUAACACAAGAUAUGAGCGAAUGACAGCAAGGGGAGAGACCUGACCGAAAACCUCGGGAUACAGGCGCCGAAGGAGCAAACUGCGGAGUGAAUCUCUCAGGCAAAAGAACUCUUGCUCGACGCAACUCUGGAGAGUGUUUGUGCGGAUGCGCAAACCACCAAAGGGGACGUCUUUGCGUAUGCAAAGUAAACUUUCAGGUGCCAGGACAGAGAAGAAGGACGGGUCCAGCUGCUUCGGCAGCUGUUGAGUAGAGUGUGAGCUUCUCU
The experiment in a line: in-solution fluorescence titration, Spinach/DFHBI-1T turn-off. The following applies: 125 mM K+, 20 mM Mg2+; apparent; 50 mM Tris pH 8.31, 20 µM DFHBI-1T.

As for `NCC(=O)O`, the KD is 71 ± 4 µM.
